Test results published in ChEMBL document CHEMBL1909046, “DrugMatrix in vitro pharmacology data”.

system: not listed separately; test: DRUGMATRIX: Tumor Necrosis Factor (TNF), Non-Selective radioligand binding (ligand: [125I] TNF-alpha); format: cell membranes, Membrane; conditions: u-937; Not Active = under 50% inhibition at 10 µM

Q: With O=C(O)CNCP(=O)(O)O [GLYPHOSATE] as the compound, how does the IC50 read?
A: Not Active

Q: And the Ki?
A: Not Active

Q: With CO[C@H]1O[C@@H]2O[C@@]3(C)CC[C@H]4[C@H](C)CC[C@@H]([C@H]1C)[C@@]24OO3 as the compound, how does the IC50 read?
A: Not Active

Q: And the Ki?
A: Not Active

Q: With Nc1ccc(C(=O)O)c(O)c1 [AMINOSALICYLIC ACID] as the compound, how does the IC50 read?
A: Not Active

Q: And the Ki?
A: Not Active

Q: Which IC50 does the source give for Nc1nc(F)nc2c1ncn2[C@@H]1O[C@H](CO)[C@@H](O)[C@@H]1O [FLUDARABINE] here?
A: Not Active

Q: What about the Ki of the same compound?
A: Not Active

Q: For CHROMIC CHLORIDE, which IC50 is on record?
A: Not Active

Q: And the Ki?
A: Not Active

Q: Which IC50 does the source give for O=C(O)CO [GLYCOLIC ACID] here?
A: Not Active

Q: What about the Ki of the same compound?
A: Not Active

target: T1, Polyunsaturated fatty acid lipoxygenase ALOX15 (Oryctolagus cuniculus, UniProt P12530); test: biochemical; format: tissue-based, Reticulocytes; conditions: reticulocytes;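 note: inhibition of 15-lipoxygenase enzyme activity measured with linoleic acid as the substrate; in other assays of this panel Not Active means under 50% inhibition at 10 µM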
T1 sequence (P12530 whole entry): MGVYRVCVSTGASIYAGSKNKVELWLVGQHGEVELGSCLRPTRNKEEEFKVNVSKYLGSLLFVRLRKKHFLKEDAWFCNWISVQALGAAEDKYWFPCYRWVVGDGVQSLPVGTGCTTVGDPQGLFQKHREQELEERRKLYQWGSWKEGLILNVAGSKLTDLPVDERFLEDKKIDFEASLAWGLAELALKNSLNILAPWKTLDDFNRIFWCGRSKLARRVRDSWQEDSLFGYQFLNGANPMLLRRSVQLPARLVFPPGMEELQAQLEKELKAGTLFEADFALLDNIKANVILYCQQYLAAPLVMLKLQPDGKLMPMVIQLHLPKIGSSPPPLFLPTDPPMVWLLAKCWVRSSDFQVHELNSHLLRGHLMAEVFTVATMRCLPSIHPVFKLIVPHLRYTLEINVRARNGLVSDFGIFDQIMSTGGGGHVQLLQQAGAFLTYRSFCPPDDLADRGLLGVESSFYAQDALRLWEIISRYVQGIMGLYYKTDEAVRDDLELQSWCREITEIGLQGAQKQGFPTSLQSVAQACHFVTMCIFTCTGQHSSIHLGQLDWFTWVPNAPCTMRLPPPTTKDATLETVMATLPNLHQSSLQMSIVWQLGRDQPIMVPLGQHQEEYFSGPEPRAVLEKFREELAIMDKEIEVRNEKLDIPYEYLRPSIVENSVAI

Q: Which IC50 does the source give for O=C(O)CNCP(=O)(O)O [GLYPHOSATE] here?
A: Not Active

Q: Which IC50 does the source give for CO[C@H]1O[C@@H]2O[C@@]3(C)CC[C@H]4[C@H](C)CC[C@@H]([C@H]1C)[C@@]24OO3 here?
A: Not Active

Q: Which IC50 does the source give for Nc1ccc(C(=O)O)c(O)c1 [AMINOSALICYLIC ACID] here?
A: Not Active

Q: For Nc1nc(F)nc2c1ncn2[C@@H]1O[C@H](CO)[C@@H](O)[C@@H]1O [FLUDARABINE], which IC50 is on record?
A: Not Active

Q: With CHROMIC CHLORIDE as the compound, how does the IC50 read?
A: Not Active

Q: What about the Ki of the same compound?
A: Not Active

Q: For O=C(O)CO [GLYCOLIC ACID], which IC50 is on record?
A: Not Active

target: Histamine H2 receptor (Homo sapiens, UniProt P25021); test: not given; format: cell membranes, CHO-K1, Membrane; conditions: cho-k1; note: in other assays of this panel Not Active means under 50% inhibition at 10 µM
Sequence (P25021 whole entry): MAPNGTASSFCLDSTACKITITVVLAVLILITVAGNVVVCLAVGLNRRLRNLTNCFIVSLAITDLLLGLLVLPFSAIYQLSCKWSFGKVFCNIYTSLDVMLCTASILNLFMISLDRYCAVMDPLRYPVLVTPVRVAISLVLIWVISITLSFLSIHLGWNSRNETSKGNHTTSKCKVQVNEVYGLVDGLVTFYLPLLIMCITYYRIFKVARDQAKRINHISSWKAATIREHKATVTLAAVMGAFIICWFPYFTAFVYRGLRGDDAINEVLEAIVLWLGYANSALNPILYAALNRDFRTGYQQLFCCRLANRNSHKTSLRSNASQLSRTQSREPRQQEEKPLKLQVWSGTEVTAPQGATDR

Q: For O=C(O)CNCP(=O)(O)O [GLYPHOSATE], which IC50 is on record?
A: Not Active

Q: For CO[C@H]1O[C@@H]2O[C@@]3(C)CC[C@H]4[C@H](C)CC[C@@H]([C@H]1C)[C@@]24OO3, which IC50 is on record?
A: Not Active

Q: Which IC50 does the source give for Nc1ccc(C(=O)O)c(O)c1 [AMINOSALICYLIC ACID] here?
A: Not Active

Q: Which IC50 does the source give for Nc1nc(F)nc2c1ncn2[C@@H]1O[C@H](CO)[C@@H](O)[C@@H]1O [FLUDARABINE] here?
A: Not Active

Q: For CHROMIC CHLORIDE, which IC50 is on record?
A: Not Active

Q: And the Ki?
A: Not Active

Q: With O=C(O)CO [GLYCOLIC ACID] as the compound, how does the IC50 read?
A: Not Active

target: T2, Neuropeptide Y receptor type 1 (Homo sapiens, UniProt P25929); test: not given; format: cell membranes, Membrane; conditions: sk-n-mc; note: in other assays of this panel Not Active means under 50% inhibition at 10 µM
T2 sequence (P25929 whole entry): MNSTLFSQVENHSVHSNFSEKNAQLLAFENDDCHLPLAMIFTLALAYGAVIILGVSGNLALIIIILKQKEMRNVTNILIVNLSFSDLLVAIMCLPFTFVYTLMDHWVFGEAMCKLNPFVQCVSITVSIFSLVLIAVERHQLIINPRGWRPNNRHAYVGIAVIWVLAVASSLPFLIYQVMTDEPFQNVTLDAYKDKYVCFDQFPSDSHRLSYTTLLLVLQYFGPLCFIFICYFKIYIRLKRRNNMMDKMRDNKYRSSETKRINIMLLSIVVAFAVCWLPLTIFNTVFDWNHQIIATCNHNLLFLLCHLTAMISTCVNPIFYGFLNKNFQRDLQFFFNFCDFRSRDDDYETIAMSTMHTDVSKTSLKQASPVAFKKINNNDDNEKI

Q: With O=C(O)CNCP(=O)(O)O [GLYPHOSATE] as the compound, how does the IC50 read?
A: Not Active

Q: For CO[C@H]1O[C@@H]2O[C@@]3(C)CC[C@H]4[C@H](C)CC[C@@H]([C@H]1C)[C@@]24OO3, which IC50 is on record?
A: Not Active

Q: With Nc1ccc(C(=O)O)c(O)c1 [AMINOSALICYLIC ACID] as the compound, how does the IC50 read?
A: Not Active

Q: With Nc1nc(F)nc2c1ncn2[C@@H]1O[C@H](CO)[C@@H](O)[C@@H]1O [FLUDARABINE] as the compound, how does the IC50 read?
A: Not Active

Q: For CHROMIC CHLORIDE, which IC50 is on record?
A: Not Active

Q: And the Ki?
A: Not Active

Q: For O=C(O)CO [GLYCOLIC ACID], which IC50 is on record?
A: Not Active

target: T3, Cathepsin G (Homo sapiens, UniProt P08311); test: biochemical; format: tissue-based, Neutrophil; conditions: neutrophil;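 note: inhibition of Cathepsin G enzyme activity, tested on an AMC-conjugated peptide substrate; in other assays of this panel Not Active means under 50% inhibition at 10 µM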
T3 sequence (P08311 whole entry): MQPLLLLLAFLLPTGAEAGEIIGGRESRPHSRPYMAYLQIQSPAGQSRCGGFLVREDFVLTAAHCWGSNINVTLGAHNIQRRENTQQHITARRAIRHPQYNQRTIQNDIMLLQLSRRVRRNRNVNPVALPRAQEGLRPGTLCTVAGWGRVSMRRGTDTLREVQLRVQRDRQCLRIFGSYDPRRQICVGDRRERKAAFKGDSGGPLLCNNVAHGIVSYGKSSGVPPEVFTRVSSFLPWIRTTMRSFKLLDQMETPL

Q: Which IC50 does the source give for O=C(O)CNCP(=O)(O)O [GLYPHOSATE] here?
A: Not Active

Q: With CO[C@H]1O[C@@H]2O[C@@]3(C)CC[C@H]4[C@H](C)CC[C@@H]([C@H]1C)[C@@]24OO3 as the compound, how does the IC50 read?
A: Not Active

Q: With Nc1ccc(C(=O)O)c(O)c1 [AMINOSALICYLIC ACID] as the compound, how does the IC50 read?
A: Not Active

Q: Which IC50 does the source give for Nc1nc(F)nc2c1ncn2[C@@H]1O[C@H](CO)[C@@H](O)[C@@H]1O [FLUDARABINE] here?
A: Not Active

Q: What does the source list for CHROMIC CHLORIDE?
A: IC50: Not Active; Ki: Not Active

Q: For O=C(O)CO [GLYCOLIC ACID], which IC50 is on record?
A: Not Active

target: T4, C-X-C chemokine receptor type 1 (Homo sapiens, UniProt P25024); test: not given; conditions: not given; note: in other assays of this panel Not Active means under 50% inhibition at 10 µM
T4 sequence (P25024 whole entry): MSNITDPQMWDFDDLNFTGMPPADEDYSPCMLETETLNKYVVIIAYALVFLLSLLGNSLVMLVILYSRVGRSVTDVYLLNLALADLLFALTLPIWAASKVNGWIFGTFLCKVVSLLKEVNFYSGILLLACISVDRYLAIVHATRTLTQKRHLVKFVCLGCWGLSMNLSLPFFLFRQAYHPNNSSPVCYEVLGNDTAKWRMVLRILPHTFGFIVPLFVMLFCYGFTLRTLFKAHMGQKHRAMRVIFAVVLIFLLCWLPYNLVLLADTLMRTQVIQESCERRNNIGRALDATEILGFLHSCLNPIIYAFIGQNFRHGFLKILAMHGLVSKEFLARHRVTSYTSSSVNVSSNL

Q: Which IC50 does the source give for O=C(O)CNCP(=O)(O)O [GLYPHOSATE] here?
A: Not Active

Q: Which IC50 does the source give for CO[C@H]1O[C@@H]2O[C@@]3(C)CC[C@H]4[C@H](C)CC[C@@H]([C@H]1C)[C@@]24OO3 here?
A: Not Active

Q: With Nc1ccc(C(=O)O)c(O)c1 [AMINOSALICYLIC ACID] as the compound, how does the IC50 read?
A: Not Active

Q: With Nc1nc(F)nc2c1ncn2[C@@H]1O[C@H](CO)[C@@H](O)[C@@H]1O [FLUDARABINE] as the compound, how does the IC50 read?
A: Not Active

Q: With CHROMIC CHLORIDE as the compound, how does the IC50 read?
A: Not Active

Q: And the Ki?
A: Not Active

Q: With O=C(O)CO [GLYCOLIC ACID] as the compound, how does the IC50 read?
A: Not Active

system: not listed separately; test: DRUGMATRIX: GABAA, Flunitrazepam, Central radioligand binding (ligand: [3H] Flunitrazepam); format: cell membranes, Rattus norvegicus, Wistar, Brain, Membrane; conditions: Not Active = under 50% inhibition at 10 µM

Q: For O=C(O)CNCP(=O)(O)O [GLYPHOSATE], which IC50 is on record?
A: Not Active

Q: And the Ki?
A: Not Active

Q: Which results are given for CO[C@H]1O[C@@H]2O[C@@]3(C)CC[C@H]4[C@H](C)CC[C@@H]([C@H]1C)[C@@]24OO3?
A: IC50: Not Active; Ki: Not Active

Q: For Nc1ccc(C(=O)O)c(O)c1 [AMINOSALICYLIC ACID], which IC50 is on record?
A: Not Active

Q: And the Ki?
A: Not Active

Q: What does the source list for Nc1nc(F)nc2c1ncn2[C@@H]1O[C@H](CO)[C@@H](O)[C@@H]1O [FLUDARABINE]?
A: IC50: Not Active; Ki: Not Active

Q: With CHROMIC CHLORIDE as the compound, how does the IC50 read?
A: Not Active

Q: What about the Ki of the same compound?
A: Not Active

Q: For O=C(O)CO [GLYCOLIC ACID], which IC50 is on record?
A: Not Active

Q: And the Ki?
A: Not Active
